Measurements as given in PMC5218480 (PLoS ONE, 2017).

Test system: MV-4-11 cells
Experiment: Gene expression microarray analysis (Affymetrix PrimeView) and GSEA
Assay type: cell-based, human
Parameters: RFU PODN (11730768_x_at) / Fold change /veh PODN (11730768_x_at) / RFU LINC00158 (11744669_a_at) / Fold change /veh LINC00158 (11744669_a_at) / RFU DUSP10 (11751237_a_at) / Fold change /veh DUSP10 (11751237_a_at) / RFU ID3 (11757404_x_at) / Fold change /veh ID3 (11757404_x_at) / RFU PLEKHG5 (11737974_s_at) / Fold change /veh PLEKHG5 (11737974_s_at) / RFU LRRC4B (11730491_at) / Fold change /veh LRRC4B (11730491_at) / RFU GIMAP4 (11747438_a_at) / Fold change /veh GIMAP4 (11747438_a_at) / RFU KRT8 (11758183_x_at) / Fold change /veh KRT8 (11758183_x_at) / RFU CNN1 (11734310_a_at) / Fold change /veh CNN1 (11734310_a_at) / RFU VPS37D (11726825_at) / Fold change /veh VPS37D (11726825_at) / RFU C10orf10 (11716522_x_at) / Fold change /veh C10orf10 (11716522_x_at) / RFU KIR2DL2 /// KIR2DL4 /// KIR2DL5A /// KIR2DL5B /// KIR2DS1 /// KIR2DS2 /// KIR2DS3 /// KIR2DS4 /// KIR3DL3 /// KIR3DL3 /// KIR3DS1 (11738374_at) / Fold change /veh KIR2DL2 /// KIR2DL4 /// KIR2DL5A /// KIR2DL5B /// KIR2DS1 /// KIR2DS2 /// KIR2DS3 /// KIR2DS4 /// KIR3DL3 /// KIR3DL3 /// KIR3DS1 (11738374_at) / RFU C1QL1 (11718748_at) / Fold change /veh C1QL1 (11718748_at) / RFU TMPRSS4 (11747572_a_at) / Fold change /veh TMPRSS4 (11747572_a_at) / RFU HAMP (11756126_x_at) / Fold change /veh HAMP (11756126_x_at) / RFU RNFT2 (11725882_a_at) / Fold change /veh RNFT2 (11725882_a_at) / RFU NR4A2 (11747474_a_at) / Fold change /veh NR4A2 (11747474_a_at) / RFU ABCC12 (11746883_a_at) / Fold change /veh ABCC12 (11746883_a_at) / RFU TMEM136 (11760407_x_at) / Fold change /veh TMEM136 (11760407_x_at) / RFU CLDN22 /// WWC2 (11732394_at) / Fold change /veh CLDN22 /// WWC2 (11732394_at) / RFU HLA-DPB1 (11760878_x_at) / Fold change /veh HLA-DPB1 (11760878_x_at) / RFU SPINT1 (11716480_a_at) / Fold change /veh SPINT1 (11716480_a_at) / RFU GAP43 (11754022_s_at) / Fold change /veh GAP43 (11754022_s_at) / RFU A4GNT (11735810_at) / Fold change /veh A4GNT (11735810_at) / RFU PRB3 (11715151_x_at) / Fold change /veh PRB3 (11715151_x_at) / RFU TUBB4B (11761932_at) / Fold change /veh TUBB4B (11761932_at) / RFU CAPN14 (11732068_a_at) / Fold change /veh CAPN14 (11732068_a_at) / RFU TMCC2 (11721928_a_at) / Fold change /veh TMCC2 (11721928_a_at) / RFU IRGQ (11745062_a_at) / Fold change /veh IRGQ (11745062_a_at) / RFU FAM174B (11720279_a_at) / Fold change /veh FAM174B (11720279_a_at) / RFU TMPRSS4 (11748680_a_at) / Fold change /veh TMPRSS4 (11748680_a_at) / RFU FAM212B (11763350_a_at) / Fold change /veh FAM212B (11763350_a_at) / RFU PLEKHG5 (11743358_a_at) / Fold change /veh PLEKHG5 (11743358_a_at) / RFU ZSCAN30 (11745921_a_at) / Fold change /veh ZSCAN30 (11745921_a_at) / RFU CMKLR1 (11741424_a_at) / Fold change /veh CMKLR1 (11741424_a_at) / RFU LOC101060620 /// MAPK8IP1 (11723275_at) / Fold change /veh LOC101060620 /// MAPK8IP1 (11723275_at) / RFU SPTSSB (11747773_x_at) / Fold change /veh SPTSSB (11747773_x_at) / RFU PRSS12 (11739890_at) / Fold change /veh PRSS12 (11739890_at) / RFU BIN1 (11741810_x_at) / Fold change /veh BIN1 (11741810_x_at) / RFU WNT11 (11732464_a_at) / Fold change /veh WNT11 (11732464_a_at) / RFU C10orf10 (11716521_a_at) / Fold change /veh C10orf10 (11716521_a_at) / RFU C5orf56 (11738089_at) / Fold change /veh C5orf56 (11738089_at) / RFU CYB561 (11721691_x_at) / Fold change /veh CYB561 (11721691_x_at) / RFU ANKRD19P (11752326_a_at) / Fold change /veh ANKRD19P (11752326_a_at) / RFU OR2T12 /// OR2T33 /// OR2T8 (11738714_s_at) / Fold change /veh OR2T12 /// OR2T33 /// OR2T8 (11738714_s_at) / RFU VCAN (11748164_a_at) / Fold change /veh VCAN (11748164_a_at) / RFU JSRP1 (11732532_at) / Fold change /veh JSRP1 (11732532_at) / RFU KRTAP10-11 (11738290_x_at) / Fold change /veh KRTAP10-11 (11738290_x_at) / RFU MYO3A (11730013_a_at) / Fold change /veh MYO3A (11730013_a_at) / RFU EBF3 (11725865_a_at) / Fold change /veh EBF3 (11725865_a_at) / RFU CAMK2N1 (11719241_x_at) / Fold change /veh CAMK2N1 (11719241_x_at) / RFU C5orf56 (11738088_a_at) / Fold change /veh C5orf56 (11738088_a_at) / RFU OLFML3 (11715873_a_at) / Fold change /veh OLFML3 (11715873_a_at) / RFU LOC100653217 /// NTM (11731650_a_at) / Fold change /veh LOC100653217 /// NTM (11731650_a_at) / RFU MAPK11 (11762145_a_at) / Fold change /veh MAPK11 (11762145_a_at) / RFU FIZ1 (11724087_x_at) / Fold change /veh FIZ1 (11724087_x_at) / RFU OASL (11726364_x_at) / Fold change /veh OASL (11726364_x_at) / RFU SOX15 (11748057_x_at) / Fold change /veh SOX15 (11748057_x_at) / RFU CD79A (11719716_a_at) / Fold change /veh CD79A (11719716_a_at) / RFU HIST1H1D (11736915_at) / Fold change /veh HIST1H1D (11736915_at) / RFU CASKIN2 (11723855_a_at) / Fold change /veh CASKIN2 (11723855_a_at) / RFU LOC730098 (11760151_x_at) / Fold change /veh LOC730098 (11760151_x_at) / RFU OR4N2 (11742367_at) / Fold change /veh OR4N2 (11742367_at) / RFU PRRT2 (11749266_a_at) / Fold change /veh PRRT2 (11749266_a_at) / RFU SNX32 (11753110_a_at) / Fold change /veh SNX32 (11753110_a_at) / RFU CDHR5 (11726645_a_at) / Fold change /veh CDHR5 (11726645_a_at) / RFU RCAN1 (11760418_a_at) / Fold change /veh RCAN1 (11760418_a_at) / RFU FAM167A (11723789_a_at) / Fold change /veh FAM167A (11723789_a_at) / RFU FAM26E (11764081_at) / Fold change /veh FAM26E (11764081_at) / RFU ISYNA1 (11749810_s_at) / Fold change /veh ISYNA1 (11749810_s_at) / RFU ACY1 (11761880_at) / Fold change /veh ACY1 (11761880_at) / RFU 11764098_at / Fold change /veh 11764098_at / RFU SAMD14 (11745864_x_at) / Fold change /veh SAMD14 (11745864_x_at) / RFU NPB (11741838_a_at) / Fold change /veh NPB (11741838_a_at) / RFU TMPRSS6 (11731388_a_at) / Fold change /veh TMPRSS6 (11731388_a_at) / RFU KRTAP10-2 (11738614_at) / Fold change /veh KRTAP10-2 (11738614_at) / RFU ARHGAP8 /// PRR5-ARHGAP8 (11727945_x_at) / Fold change /veh ARHGAP8 /// PRR5-ARHGAP8 (11727945_x_at) / RFU KRTAP5-7 /// NADSYN1 (11734609_at) / Fold change /veh KRTAP5-7 /// NADSYN1 (11734609_at) / RFU RASL12 (11751679_a_at) / Fold change /veh RASL12 (11751679_a_at) / RFU CDKN2B (11736163_a_at) / Fold change /veh CDKN2B (11736163_a_at) / RFU PRF1 (11729649_at) / Fold change /veh PRF1 (11729649_at) / RFU, ZNF638 /// ZNF638-IT1 / Fold change vs veh, ZNF638 /// ZNF638-IT1 / RFU, PANK3 / Fold change vs veh, PANK3 / RFU, SH3YL1 / Fold change vs veh, SH3YL1 / RFU, ZEB2 / Fold change vs veh, ZEB2 / RFU, NRIP1 / Fold change vs veh, NRIP1 / RFU, PTTG1IP / Fold change vs veh, PTTG1IP / RFU, CAPN2 / Fold change vs veh, CAPN2 / RFU, MED14 / Fold change vs veh, MED14 / RFU, SNORA58 / Fold change vs veh, SNORA58 / RFU, C1orf63 / Fold change vs veh, C1orf63 / RFU, LRRFIP1 / Fold change vs veh, LRRFIP1 / RFU, NDUFAF7 / Fold change vs veh, NDUFAF7 / RFU, SLC12A2 / Fold change vs veh, SLC12A2 / RFU, IBTK / Fold change vs veh, IBTK / RFU, ESF1 / Fold change vs veh, ESF1 / Fold change vs veh, TMEM50B / RFU, TAOK1 / Fold change vs veh, TAOK1 / RFU, ACBD3 / Fold change vs veh, ACBD3 / RFU, TMA16 / Fold change vs veh, TMA16 / RFU, RWDD3 / Fold change vs veh, RWDD3 / RFU, BCAT1 / Fold change vs veh, BCAT1 / RFU, EDEM3 / Fold change vs veh, EDEM3 / RFU, TMEM33 / Fold change vs veh, TMEM33 / RFU, WDR75 / Fold change vs veh, WDR75 / RFU, AHCTF1 / Fold change vs veh, AHCTF1 / RFU, TFRC / Fold change vs veh, TFRC / RFU, ZDHHC17 / Fold change vs veh, ZDHHC17 / RFU, NOM1 / Fold change vs veh, NOM1 / RFU, ARL8B / Fold change vs veh, ARL8B / RFU, ZBTB11 / Fold change vs veh, ZBTB11 / RFU, TAMM41 / Fold change vs veh, TAMM41 / RFU, KIAA1704 /// LOC100996395 / Fold change vs veh, KIAA1704 /// LOC100996395 / RFU, ING1 / Fold change vs veh, ING1 / RFU, TRMT61B / Fold change vs veh, TRMT61B / RFU, FUBP3 / Fold change vs veh, FUBP3 / RFU, TP53 / Fold change vs veh, TP53 / RFU, TNKS2 / Fold change vs veh, TNKS2 / RFU, ZFP14 / Fold change vs veh, ZFP14 / RFU, ACTR2 / Fold change vs veh, ACTR2 / RFU, PPP3R1 / Fold change vs veh, PPP3R1 / RFU, PIK3R1 / Fold change vs veh, PIK3R1 / RFU, HNRNPA1 / Fold change vs veh, HNRNPA1 / RFU, RNF170 / Fold change vs veh, RNF170 / RFU, ZNF28 / Fold change vs veh, ZNF28 / RFU, RNGTT / Fold change vs veh, RNGTT / RFU, OGT / Fold change vs veh, OGT / RFU, BRD1 / Fold change vs veh, BRD1 / RFU, MARS / Fold change vs veh, MARS / RFU, ZNF655 / Fold change vs veh, ZNF655 / RFU, FAHD1 / Fold change vs veh, FAHD1 / RFU, BDP1 / Fold change vs veh, BDP1 / RFU, LRRCC1 / Fold change vs veh, LRRCC1 / RFU, ARID1A / Fold change vs veh, ARID1A / RFU, ZNF146 / Fold change vs veh, ZNF146 / RFU, ZNF330 / Fold change vs veh, ZNF330 / RFU, GPN3 / Fold change vs veh, GPN3 / RFU, C9orf123 / Fold change vs veh, C9orf123 / RFU, N4BP2L2 / Fold change vs veh, N4BP2L2 / RFU, ARFIP1 / Fold change vs veh, ARFIP1 / RFU, FAM179B / Fold change vs veh, FAM179B / RFU, BCL10 / Fold change vs veh, BCL10 / RFU, UHRF1BP1L / Fold change vs veh, UHRF1BP1L / RFU, BET1 / Fold change vs veh, BET1 / RFU, CNOT2 / Fold change vs veh, CNOT2 / RFU, ZNF268 / Fold change vs veh, ZNF268 / Fold change vs veh, ZNF507 / RFU, DGCR2 / Fold change vs veh, DGCR2 / RFU, WDSUB1 / Fold change vs veh, WDSUB1 / Fold change vs veh, HSP90B1 /// MIR3652 / RFU, ADSS / Fold change vs veh, ADSS / RFU, GK / Fold change vs veh, GK / RFU, ZNF148 / Fold change vs veh, ZNF148 / RFU, TAF9 / Fold change vs veh, TAF9 / RFU, SLC1A5 / Fold change vs veh, SLC1A5 / RFU, SLMO2 / Fold change vs veh, SLMO2 / RFU, ABCC4 / Fold change vs veh, ABCC4 / RFU, LOC101060439 /// RAP1B / Fold change vs veh, LOC101060439 /// RAP1B / RFU, RFX7 / Fold change vs veh, RFX7 / RFU, GTPBP10 / Fold change vs veh, GTPBP10 / RFU, CNEP1R1 / Fold change vs veh, CNEP1R1 / RFU, BIVM-ERCC5 /// ERCC5 / Fold change vs veh, BIVM-ERCC5 /// ERCC5 / RFU, ILF3 / Fold change vs veh, ILF3 / RFU 11762660_at / Fold change /veh 11762660_at / RFU VCAN (11757783_s_at) / Fold change /veh VCAN (11757783_s_at) / RFU DDX43 (11728927_at) / Fold change /veh DDX43 (11728927_at) / RFU KRT8 (11758188_x_at) / Fold change /veh KRT8 (11758188_x_at) / RFU NKD1 (11759106_at) / Fold change /veh NKD1 (11759106_at) / RFU SRD5A1 (11742802_a_at) / Fold change /veh SRD5A1 (11742802_a_at) / RFU TPSAB1 /// TPSB2 (11721975_s_at) / Fold change /veh TPSAB1 /// TPSB2 (11721975_s_at) / RFU GSTM3 (11746129_a_at) / Fold change /veh GSTM3 (11746129_a_at) / RFU IL23R (11737362_x_at) / Fold change /veh IL23R (11737362_x_at) / RFU TMEM51 (11727254_a_at) / Fold change /veh TMEM51 (11727254_a_at) / RFU PIWIL2 (11732686_x_at) / Fold change /veh PIWIL2 (11732686_x_at) / RFU ORM1 (11744905_x_at) / Fold change /veh ORM1 (11744905_x_at) / RFU CCDC152 (11743942_at) / Fold change /veh CCDC152 (11743942_at) / RFU ECM1 (11717891_a_at) / Fold change /veh ECM1 (11717891_a_at) / RFU IL23R (11748794_a_at) / Fold change /veh IL23R (11748794_a_at) / RFU TNFAIP8L3 (11732012_x_at) / Fold change /veh TNFAIP8L3 (11732012_x_at) / RFU MBOAT4 (11741988_at) / Fold change /veh MBOAT4 (11741988_at) / RFU 11764193_at / Fold change /veh 11764193_at / RFU TMEM53 (11763286_at) / Fold change /veh TMEM53 (11763286_at) / RFU MAGEB2 (11727129_at) / Fold change /veh MAGEB2 (11727129_at) / RFU TMEM200A (11744735_a_at) / Fold change /veh TMEM200A (11744735_a_at) / RFU CCDC152 (11751479_a_at) / Fold change /veh CCDC152 (11751479_a_at) / RFU FAM211A (11726209_a_at) / Fold change /veh FAM211A (11726209_a_at) / RFU RGS16 (11746705_a_at) / Fold change /veh RGS16 (11746705_a_at) / RFU VCAN (11755009_s_at) / Fold change /veh VCAN (11755009_s_at) / RFU RHOB (11743442_s_at) / Fold change /veh RHOB (11743442_s_at) / RFU RGS16 (11720943_a_at) / Fold change /veh RGS16 (11720943_a_at) / RFU RGS16 (11720944_at) / Fold change /veh RGS16 (11720944_at) / RFU, VPS4B / Fold change vs veh, VPS4B / RFU, CREB1 / Fold change vs veh, CREB1 / RFU, DNAJC13 / Fold change vs veh, DNAJC13 / RFU, GNAQ / Fold change vs veh, GNAQ / RFU, CDK5R1 / Fold change vs veh, CDK5R1 / RFU, ZRANB3 / Fold change vs veh, ZRANB3 / RFU, CUL4A / Fold change vs veh, CUL4A / RFU, CCNY / Fold change vs veh, CCNY / RFU, UFL1 / Fold change vs veh, UFL1 / RFU, COG3 / Fold change vs veh, COG3 / RFU, DIAPH2 / Fold change vs veh, DIAPH2 / RFU, SKA2 / Fold change vs veh, SKA2 / RFU, AFF3 / Fold change vs veh, AFF3 / RFU, LMF1 / Fold change vs veh, LMF1 / RFU, IPO11 / Fold change vs veh, IPO11 / RFU, DFFB / Fold change vs veh, DFFB / RFU, FOXP1 / Fold change vs veh, FOXP1 / RFU, CARD8 / Fold change vs veh, CARD8 / RFU, STRN3 / Fold change vs veh, STRN3 / RFU, ADK / Fold change vs veh, ADK / RFU, RASSF2 / Fold change vs veh, RASSF2 / RFU, WIPF1 / Fold change vs veh, WIPF1 / RFU, LARP1B / Fold change vs veh, LARP1B / RFU, RASA1 / Fold change vs veh, RASA1 / RFU, RB1 / Fold change vs veh, RB1 / RFU, PPFIA1 / Fold change vs veh, PPFIA1 / RFU, MAT2A / Fold change vs veh, MAT2A / RFU, CCT5 / Fold change vs veh, CCT5 / RFU, WDR92 / Fold change vs veh, WDR92 / RFU, CUX1 / Fold change vs veh, CUX1 / RFU, TTC7A / Fold change vs veh, TTC7A / RFU, TMEM135 / Fold change vs veh, TMEM135 / RFU, DEPTOR / Fold change vs veh, DEPTOR / RFU, CPM / Fold change vs veh, CPM / RFU, DNAJB6 / Fold change vs veh, DNAJB6 / RFU, CACNA2D3 / Fold change vs veh, CACNA2D3 / RFU, DTX4 / Fold change vs veh, DTX4 / RFU, TFCP2 / Fold change vs veh, TFCP2 / RFU, GMCL1 /// GMCL1P1 / Fold change vs veh, GMCL1 /// GMCL1P1 / RFU, AEBP2 / Fold change vs veh, AEBP2 / RFU, SNHG1 /// SNORD22 /// SNORD25 /// SNORD26 /// SNORD27 /// SNORD28 /// SNORD29 /// SNORD31 / Fold change vs veh, SNHG1 /// SNORD22 /// SNORD25 /// SNORD26 /// SNORD27 /// SNORD28 /// SNORD29 /// SNORD31 / Fold change (Aza/veh), C12orf56 (ProbeSet 11735607_a_at) / Fold change (ACY-1035/veh), C12orf56 (ProbeSet 11735607_a_at) / Fold change (Aza/veh), FGFR1OP (ProbeSet 11751329_s_at) / Fold change (ACY-1035/veh), FGFR1OP (ProbeSet 11751329_s_at) / Fold change (Aza/veh), VPS36 (ProbeSet 11739960_a_at) / Fold change (ACY-1035/veh), VPS36 (ProbeSet 11739960_a_at) / RFU SYPL1 (11715823_x_at) / Fold change /veh SYPL1 (11715823_x_at) / RFU IGFBP7 (11715501_s_at) / Fold change /veh IGFBP7 (11715501_s_at) / RFU REEP3 (11722064_at) / Fold change /veh REEP3 (11722064_at) / RFU IGLL1 (11728026_x_at) / Fold change /veh IGLL1 (11728026_x_at): dose or concentration left out as unconfirmed
Details: ProbeSet 11759094_a_at; LIST D

## Nc1ncn([C@@H]2O[C@H](CO)[C@@H](O)[C@H]2O)c(=O)n1 [azacitidine]
  RFU, GNAQ: 421.57 RFU
